Measurements published in patent US10919896B2, “Preparation and uses of pyrimidinone derivatives” (Cancer Research Technology Limited, priority 2016, dated 2021).
Counter-ions that a name gives are not always drawn.

Key:
[1] = system: Cdc7 (pS53MCM2 levels in HCT116 cells); test: Cdc7 Cell Pharmacodynamics Assay Method 1: pS53MCM2 levels in HCT116 cells, 6 hours; assay type: cell-based; conditions: for EC50: Homo sapiens, HCT-116, 6 h, read-out: Biomarker Method 1 (pEC50) (converted)
From the text: This protocol describes a method to investigate the inhibition of Cdc7 activity of compounds by measuring pS53MCM2 levels in cells after treatment.
• HCT116 cells (wild type P53 positive) • McCoys 5A media (PAA Laboratories Ltd, E15-022) • 10% FCS (Sera Laboratories International Ltd, EU000F Batch:108005) • 100× L-Glutamine (Invitrogen, 25030-024) • D-PBS without CaCl2 and MgCl2 (Invitrogen, ref 14190-094) • Trypsin/EDTA (Invitrogen 25300-054) • 2% BSA in PBS • Cell Extraction Buffer (Invitrogen FNN0011) • Protease inhibitor cocktail (Sigma P-2714) • PMSF 0.3M stock in DMSO (Sigma P7626) • Antibody-rabbit pMCM2 Ser53 (Bethyl #A300-756A) • Antibody-goat MCM2 (Bethyl #A300-122A) • Antibody-goat Anti Rabbit IgG HRP (Perbio Science UK Ltd 31462) • 1×PBS • FACE Wash buffer (0.02% Triton X100 in 1×PBS) • SuperSignal ELISA Pico Chemiluminescent Substrate (Perbio Science UK Ltd 37070) Method • 72 hours prior to the start of the experiment plate 1×10^6 HCT 116 cells in a 150 cm^2 flask in complete McCoys 5A media (+10% FCS+1× L-glutamine). • Plate 20,000 HCT116 cells per well in standard TC treated 96 well plate in 100 μL complete McCoys 5A media. • Allow cells to settle overnight in incubator set at 37° C. and 5% CO2. • Remove intermediate plate from fridge and place at 37° C. overnight to allow to equilibrate. • Cell treatment: cell assay plate 100 μL; daughter to cell transfer volume 3.33 μL; daughter volume 45 μL; mother plate to daughter volume 5 μL. • Once all cells are treated remove the cells to the incubator and incubate for 6 hours. • Dilute the capture antibody (total MCM2#A300-122A) 1 in 250 in the required volume of PBS (5 mL per assay plate) and add 50 μL to each well of a Hybond plate excluding wells 12E to 12H. In these wells add 50 μL PBS. Seal the plate and incubate at room temperature for a minimum of 2 hours. • Defrost aliquot of Invitrogen Cell Extraction Buffer (FNN0011) on ice and supplement with appropriate volume of both Sigma protease inhibitor cocktail (P-2714) and PMSF (final conc 1 mM from a 1 M stock in DMSO). • After the 6 hour cell treatment time tap out the media from the assay plates and place them in the −70° C. freezer for at least 5 minutes. • Remove plates from freezer and add 20 μL of ice cold complete lysis buffer on ice. Incubate cells for 30 minutes at 4° C. • Add 80 μL per well 2% BSA. • Transfer 80 μL from the lysis plate to the same wells in the capture/ELISA plate. Cover with plate seal and incubate plates overnight at 4° C. • Wash plates with PBS, remove any residual remaining liquid and add 50 μL per well of pMCM2 Ser53 antibody (#A300-756A) diluted 1 in 100 in 2% BSA. Cover plate and incubate at room temperature for 2 hours with gentle shaking. • Wash plates with PBS, remove any residual remaining liquid and Incubate with 50 μL goat anti rabbit antibody (1 in 800 dilution in 2% BSA) for 1 hour at room temperature. • Wash plates with PBS, remove any residual remaining liquid and add 50 μL mixed SuperSignal Pico substrate. • Incubate each plate for 5 minutes at room temperature shielding the plates from direct light (with a cover plate). Read plates with the luminescent detection. Method 2A and 2B

Cdc7/ASK = Cdc7/ASK (Homo sapiens, UniProt O00311); test: Cdc7 Biochemical Assay Method 1: 384 well ELISA, whole protein substrate MCM2, antibody against Phospho MCM2 (S53); set-up: purchased; conditions: 2 μM ATP, read-out: Biochemical Method 1 (pIC50) (converted)
Chain of Cdc7/ASK (O00311 whole entry): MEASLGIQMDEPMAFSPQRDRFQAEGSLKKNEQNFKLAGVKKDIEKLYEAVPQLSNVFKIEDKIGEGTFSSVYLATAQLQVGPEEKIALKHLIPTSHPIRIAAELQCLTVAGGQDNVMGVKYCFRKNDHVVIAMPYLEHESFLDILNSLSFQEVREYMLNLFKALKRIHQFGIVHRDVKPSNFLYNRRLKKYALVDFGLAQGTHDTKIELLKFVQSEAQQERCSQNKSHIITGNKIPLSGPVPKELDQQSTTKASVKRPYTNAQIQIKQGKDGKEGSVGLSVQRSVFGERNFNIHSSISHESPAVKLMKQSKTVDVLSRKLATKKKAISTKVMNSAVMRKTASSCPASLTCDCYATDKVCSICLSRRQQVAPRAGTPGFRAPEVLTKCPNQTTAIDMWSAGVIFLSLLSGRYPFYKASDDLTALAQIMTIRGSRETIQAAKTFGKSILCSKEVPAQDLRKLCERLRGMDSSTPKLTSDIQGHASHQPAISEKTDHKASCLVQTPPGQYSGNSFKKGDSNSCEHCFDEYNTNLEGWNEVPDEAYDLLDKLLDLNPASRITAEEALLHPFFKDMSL
Chain of Cdc7/ASK (Q9UBU7 whole entry partner): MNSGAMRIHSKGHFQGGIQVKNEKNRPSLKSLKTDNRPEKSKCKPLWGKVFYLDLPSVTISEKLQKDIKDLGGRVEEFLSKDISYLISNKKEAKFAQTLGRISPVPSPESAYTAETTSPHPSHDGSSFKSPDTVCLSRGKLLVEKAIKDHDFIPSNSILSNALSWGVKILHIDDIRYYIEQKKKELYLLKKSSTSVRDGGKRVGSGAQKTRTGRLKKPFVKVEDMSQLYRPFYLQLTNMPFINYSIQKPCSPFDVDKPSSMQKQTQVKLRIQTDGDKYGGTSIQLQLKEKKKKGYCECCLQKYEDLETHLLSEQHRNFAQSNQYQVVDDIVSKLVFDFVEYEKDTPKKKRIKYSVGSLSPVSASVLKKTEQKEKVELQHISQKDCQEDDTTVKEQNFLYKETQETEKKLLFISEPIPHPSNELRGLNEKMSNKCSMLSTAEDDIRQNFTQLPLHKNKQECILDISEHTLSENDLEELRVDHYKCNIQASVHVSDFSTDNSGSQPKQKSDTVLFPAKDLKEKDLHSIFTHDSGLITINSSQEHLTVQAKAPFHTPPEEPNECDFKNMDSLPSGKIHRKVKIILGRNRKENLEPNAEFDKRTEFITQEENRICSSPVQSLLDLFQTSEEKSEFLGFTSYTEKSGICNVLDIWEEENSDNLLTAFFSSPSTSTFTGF
Procedure, shortened: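 MCM2 protein substrate was coated on nickel-chelate plates, then Cdc7/ASK was added with 2 μM ATP in 50 mM Tris-HCl pH 8.5, 10 mM MgCl2, 1 mM DTT, 4% DMSO, 90 min at room temperature. Phospho-MCM2 (S53) was detected by ELISA with an AP secondary and PNPP absorbance. IC50 was derived from % inhibition versus no-compound and no-enzyme controls.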

Cdc7/Dbf4 = Cdc7/Dbf4 (Homo sapiens, UniProt O00311); test: Cdc7 Biochemical Assay Method 3: Cdc7/Dbf4 Enzyme TR-FRET Assay measuring pS40MCM2; conditions: 1 μM ATP, read-out: Biochemical Method 3 (pIC50) (converted)
Chain of Cdc7/Dbf4 (O00311 whole entry): as the sequence (O00311 whole entry) above
Chain of Cdc7/Dbf4 (Q9UBU7 whole entry partner): as the sequence (Q9UBU7 whole entry partner) above
Description: This protocol describes a method for assaying a compounds' ability to inhibit Cdc7 activity by measuring pS40MCM2 levels in a Cdc7/Dbf4 Enzyme TR-FRET Assay.
2.5 nM Cdc7/Dbf4 was incubated with 100 nM of biotin-labelled peptide 35-TDALTS(pS)PGRDLP in the presence of 1 μM ATP at 25° C. for 120 minutes. The phosphorylation of the peptide was detected using TR-FRET. Anti-Mcm2 (pS40) antibody, Terbium anti-rabbit secondary antibody and Streptavidin-Alexa Fluor488 form the detection system.

[2] = system: Cdc7 (pS40MCM2 levels in HCT116 cells); test: Cdc7 Cell Pharmacodynamics Assay Method 2B: pS40MCM2 levels in HCT116 cells, 18 hours; assay type: cell-based; conditions: Homo sapiens, HCT-116, read-out: Biomarker Method 2B (pEC50) (converted)
From the text: This protocol describes a method to investigate the inhibition of Cdc7 activity by measuring pS40MCM2 levels in cells, after treatment with compounds.
• HCT116 cells (ATCC, #CCL-247) • McCoys 5A with L-glutamine (Cellgro, #10-050-CV) • 10% FCS (Cellgro, #35-010-CV) • D-PBS without CaCl2 and MgCl2 (Cellgro, #21-031-CV) • Trypsin/EDTA (Cellgro, #25-052-CL) • BSA (Calbiochem, 126593) • Cell Extraction Buffer (Invitrogen FNN0011) • Protease inhibitor cocktail (Sigma P-2714) • PMSF 0.3M stock in DMSO (Sigma P7626) • Antibody-rabbit pMCM2 Ser40 (Abcam, AB133243) • Antibody-goat MCM2 (Bethyl #A300-122A) • Antibody-goat Anti Rabbit IgG HRP (Thermo, 31462) • SuperSignal ELISA Pico Chemiluminescent Substrate (Perbio Science UK Ltd 37069) • 10×PBS (Growcells, MRGF-6236) • Triton X100 (Sigma, P-T8787) • DMSO (Fisher, D128-1) • 2-Propanol (J. T. Baker, 9095-03) Method • Seed 1×10^6 HCT116 cells into each of two 175 cm^2 flask containing 30 mL Cell Growth Media and incubate at 37° C., 5% CO2 for 3 days. • Harvest the cells from one T175 cm^2 flask and count. • Dilute with Cell Growth Media to a cell density of 2×10^5. Dispense 100 μL to each well (20,000 HCT116 cells/well) of TC treated 96-well plate(s). • Allow cells to settle overnight in incubator set at 37° C. and 5% CO2. • Cell treatment: Transfer 0.25 μL/well from the compound plate to the wells of the cell plate(s). This is a 1:400 dilution of compound in the assay. • Once all cells are treated place the cells back to the incubator and incubate for either 6 hours (Method 2A) or 18 hours (Method 2B). • Dilute the capture antibody (total MCM2#A300-122A) 1 in 250 in the required volume of PBS (5 mL per assay plate, plus 5 mL for dead volume) and add 50 μL to each well of a Hybond plate except wells A12 & B12. Seal the plate and incubate at room temperature for a minimum of 2 hours. • Defrost aliquot of Invitrogen Cell Extraction Buffer (FNN0011) on ice and supplement with appropriate volume of both Sigma protease inhibitor cocktail (P-2714) and PMSF (final conc 1 mM from a 1 M stock in DMSO). • After the 6 hour or 18 hour cell treatment time, tap out the media from the assay plates and place them in the −70° C. freezer for at least 5 minutes. • Flick out the remaining liquid in the previously prepared capture Ab plate(s) and add 200 μL 2% BSA per well. Incubate for 1 hour at room temperature. • Remove plates from freezer and add 20 μL of ice cold complete lysis buffer. Incubate cells for 30 minutes at 4° C. • Add 30 μL per well 2% BSA • At the end of the 1 hour incubation, wash the Capture/ELISA plate(s) with Wash Buffer on the BioTek plate washer. • Transfer 40 μL per well of the lysis plate(s) to the same wells in the Capture/ELISA plate. Incubate cells overnight at 4° C. • At the end of the overnight incubation, wash the ELISA plate(s) with Wash Buffer on BioTek plate washer. • Prepare Detection Antibody Buffer and dispense 50 μL to all wells of ELISA plate(s) except wells G1 & H1. Cover plate and incubate at room temperature for 2 hours with gentle shaking. • At the end of the 2 hour incubation, wash the ELISA plate(s) with Wash Buffer on the BioTek plate washer. • Prepare the Conjugated Antibody Buffer and dispense 50 μL to all wells of ELISA plate(s). • Cover the plate and incubate at room temperature for 1 hour with gentle shaking. • At the end of the 1 hour incubation, wash the ELISA plate(s) with Wash Buffer on the BioTek plate washer. • Prepare Substrate Buffer and dispense 50 μL to all wells of ELISA plate(s). • Incubate for a minimum of 10 minutes and read plates on the EnVision 2100 Multilabel Reader (Mirror: Luminescence (404) & Luminescence 700 (212); Measurement Height: 6.5 mm; Measurement Time: 0.2 s). Method 3

Biomarker Method 1 (pEC50) [1]	IC50 (Cdc7/ASK)	EC50 [1]	IC50 (Cdc7/Dbf4)	EC50 [2]	SMILES
7.50	1.62 nM	–	–	–	CC(C)(C)[C@H]1CN(c2nc(-c3ccnc(F)c3)[nH]c(=O)c2Cl)CCN1.Cl [Compound 160]
–	20.9 nM	724 nM	–	–	O=c1[nH]c(-c2ccncc2)nc(N2CCN[C@@H](Cc3ccccc3)C2)c1Cl [Compound 164]
–	35.5 nM	2820 nM	–	–	C[C@@H]1CN(c2nc(-c3ccncc3)[nH]c(=O)c2Cl)[C@H](C)CN1 [Compound 166]
–	8.13 nM	832 nM	–	–	O=c1[nH]c(-c2ccncc2)nc(N2CCCC(O)C2)c1Cl (centres unmarked) [Compound 167]
–	30.2 nM	562 nM	–	–	COc1ccc(C2CN(c3nc(-c4ccncc4)[nH]c(=O)c3Cl)CCN2)cc1 (centres unmarked) [Compound 169]
–	1.17 nM	72.4 nM	–	–	C[C@H]1CN(c2nc(-c3ccnc(F)c3)[nH]c(=O)c2Cl)CCN1 [Compound 171]
5.56	20.9 nM	–	–	–	O=c1[nH]c(-c2ccncc2)nc(N2CCCC(C(F)(F)F)C2)c1Cl (centres unmarked) [Compound 176]
–	5.13 nM	214 nM	–	–	O=c1[nH]c(-c2ccncc2)nc(N2CCNC(c3cccs3)C2)c1Cl (centres unmarked) [Compound 177]
–	2.4 nM	132 nM	–	–	C[C@H]1CN(c2nc(-c3ccncc3)[nH]c(=O)c2Cl)CCN1CC(F)(F)F [Compound 181, 5-chloro-4-[(3S)-3-methyl-4-(2,2,2-trifluoroethyl)piperazin-1-yl]-2-(4-pyridyl)-1H-pyrimidin-6-one]
–	–	–	4.17 nM	813 nM	C[C@@H]1CN(c2nc(-c3ccnc(F)c3)[nH]c(=O)c2Cl)C[C@H](C)O1 [Compound 201]
–	–	–	0.49 nM	64.6 nM	O=C1COCCN(c2nc(-c3ccnc(F)c3)[nH]c(=O)c2Cl)C1 [Compound 208]
–	–	–	4.37 nM	398 nM	O=c1[nH]c(-c2ccnc(F)c2)nc(N2CCC(N3CCOCC3)CC2)c1Cl [Compound 244]
–	–	–	0.832 nM	562 nM	O=c1[nH]c(-c2ccnc(F)c2)nc(N2CCCC3(CCNC3)C2)c1Cl (centres unmarked) [Compound 258]
–	–	–	1.41 nM	72.4 nM	O=c1[nH]c(-c2ccnc(F)c2)nc(N2CCCC23CCCNC3)c1Cl (centres unmarked) [Compound 260]
–	–	–	1.48 nM	295 nM	CN[C@H]1CCN(c2nc(-c3ccnc(F)c3)[nH]c(=O)c2Cl)C1 [Compound 271]
–	–	–	5.5 nM	501 nM	CN(C)[C@H]1CCN(c2nc(-c3ccnc(F)c3)[nH]c(=O)c2Cl)C1 [Compound 272]
–	–	–	0.646 nM	427 nM	C[C@]1(N)CCN(c2nc(-c3ccnc(F)c3)[nH]c(=O)c2Cl)C1 [Compound 273]
–	–	–	1.07 nM	282 nM	O=c1[nH]c(-c2ccnc(F)c2)nc(N2CCCCC2)c1Cl [Compound 277]
–	–	–	1.05 nM	457 nM	C[C@@H]1CCCCN1c1nc(-c2ccnc(F)c2)[nH]c(=O)c1Cl [Compound 281]
–	2 nM	61.7 nM	–	–	CC(C)[C@H]1CN(c2nc(-c3ccncc3)[nH]c(=O)c2Cl)CCN1 [Compound 309]
–	3.47 nM	58.9 nM	–	–	CC(C)C1CN(c2nc(-c3ccnc(F)c3)[nH]c(=O)c2Cl)CCN1 (centres unmarked) [Compound 310]
–	2.34 nM	2400 nM	–	–	CC1(C)CN(c2nc(-c3ccncc3)[nH]c(=O)c2Cl)CCN1 [Compound 361]
–	1.95 nM	110 nM	–	–	O=c1[nH]c(-c2ccncc2)nc(N2CCNCC2)c1Cl [Compound 416, 5-chloro-4-piperazin-1-yl-2-(4-pyridyl)-1H-pyrimidin-6-one hydrochloride]

SMILES	Biomarker Method 1 (pEC50) [1]	IC50 (Cdc7/ASK)	EC50 [1]	IC50 (Cdc7/Dbf4)	EC50 [2]
O=c1[nH]c(-c2ccnc(F)c2)nc(N2CC[C@@H]3CNC[C@@H]32)c1Cl [Compound 261]	–	–	–	0.813 nM	537 nM
O=c1[nH]c(-c2ccnc(F)c2)nc(N2CCCC3NCCC32)c1Cl (centres unmarked) [Compound 275]	–	–	–	0.794 nM	2090 nM
